The values that follow come from US8470856B2, “Anthranilamide compounds, process for their production and pesticides containing them” (Ishihara Sangyo Kaisha, Ltd., priority 2004, dated 2013).

Values joined by “and” are separate entries in the source; they are usually repeats but may differ in a detail not shown here. Equal values may be shown once.

What all share (assay type): in vivo
Data set [1] concerns Haemaphysalis longicornis. The experiment in a line: Controlling effects against Haemaphysalis longicornis, knockdown of larval ticks in treated petri dish. Particulars: 1 ml acetone solution 10 μg/ml on petri dish, 25° C., operation repeated twice (two values). The procedure: Test on Controlling Effects Against Haemaphysalis longicornis
On an inner surface of a petri dish having diameter of 9 cm, 1 ml of an acetone solution of a sample compound (concentration: 10 μg/ml) was dropwise applied by a micropipette. On the other hand, as a control section, 1 ml of acetone was dropwise applied in the same manner. The inner surface of the petri dish was dried, and then about 100 larval ticks were put, and the petri dish was covered with a polyethylene sheet and sealed with an elastic band. Thereafter, except for the observation time, the petri dish was left to stand at a constant temperature of 25° C. under a relative humidity of 100% and under a constantly dark condition. The observation was carried out every time after putting the larval ticks in the petri dish (after 5 minutes, 10 minutes, 15 minutes, 20 minutes, 30 minutes, 45 minutes, 1 hour, 2 hours, 4 hours, 6 hours and 24 hours). The number of knockdown ticks after the contact with the insecticidal compound was recorded. The foregoing operation was repeated twice.
The knockdown rate at each observation time was corrected by the following abbott correction formula. Then, a probit-time linear line was drawn, and the median knockdown time (KT50 value) was obtained. With respect to the KT50 values of the respective sample compounds, they were 9 minutes and 8 minutes with the above-mentioned compound No. 3, and 7.5 minutes and 6 minutes with the above-mentioned compound No. 9, while they were 80 minutes and 40 minutes with the following comparative compound A and 120 minutes and 80 minutes with the following comparative compound B. Corrected knockdown rate(%)=[(non-knockdown rate in control section−non-knockdown rate in treated section)/non-knockdown rate in control section]×100

Data set [2] relates to Common Cutworm (Spodoptera litura). The data set is described as follows: Controlling effects against common cutworm, cabbage leaf dip. Particulars: foliar, 120 h. The source says: Test on Controlling Effects Against Common Cutworm (Spodoptera litura)
A leaf segment of cabbage was dipped for about 10 seconds in an insecticidal solution prepared to bring the concentration of the compound of the present invention to 50 ppm or 3.1 ppm and dried in air. A wet filter paper was laid in a petri dish having a diameter of 9 cm, and the dried leaf segment of cabbage was placed thereon. Ten second-third instar larvae common cutworm were released therein and after putting a cover, left in a constant temperature chamber at 25° C. with lightening. Dead larvae were counted 5 days after the release, and the mortality was calculated by the following equation. Here, moribund insects were counted as dead insects. […] Mortality(%)=(number of dead insects/number of released insects)×100

Data set [3] deals with Cat Flea (Ctenocephalides felis). The experiment in a line: Controlling effects against cat flea, dry film in glass tube. Particulars: 0.5 ml of 5.3 ppm acetone solution as dry film, adult fleas, 48 hours after exposure. The procedure:
Test on Controlling Effects Against Cat Flea (Ctenocephalides felis)
0.5 ml of an acetone solution of the compound of the present invention prepared to be 5.3 ppm was dropped in a glass tube having a flat bottom (inner diameter: 2.6 cm, bottom area: 5.3 cm^2, height 12 cm). The acetone was evaporated at room temperature to have a dry film containing the compound of the present invention formed on the bottom surface. Ten adults of cat flea (not-yet-blood-sucked adults within five days after adult emergence) were put therein and exposed to the compound of the present invention. The test was carried out continuously three times.
Dead cat flea were counted 48 hours after the exposure and the mortality was obtained in the same manner as in the above Test Example 1.

On to `Cc1cc(Cl)cc(C(=O)NC(C)C)c1NC(=O)c1cc(C(F)(F)F)nn1-c1ncccc1Cl` [comparative compound A, reference compound], for which the “median knockdown time (KT50 value)” value in data set [1] was 80 min and 40 min. Turning to `Cc1cc(Cl)cc(C(=O)NC(C)C)c1NC(=O)c1cc(Br)nn1-c1ncccc1Cl` [comparative compound B, reference compound], the “median knockdown time (KT50 value)” value in data set [1] was 120 min and 80 min.

As usually defined, the mortality is the share of the test organisms that died. The low end stands for more survivors, the high end for fewer survivors. `Cc1cccc(C(=O)NCC2CC2)c1NC(=O)c1cc(C(F)(F)F)nn1-c1ncccc1Cl` [compound No. 1, N-[6-[[(cyclopropylmethyl)amino]carbonyl]-2-methylphenyl]-1-(3-chloro-2-pyridyl)-3-(trifluoromethyl)-1H-pyrazol-5-carboxamide]: in data set [2], the mortality at 3.1 ppm was no less than 90%. For `Cc1cc(Cl)cc(C(=O)NC(C)C2CC2)c1NC(=O)c1cc(C(F)(F)F)nn1-c1ncccc1Cl` (stereo not drawn) [compound No. 3, N-[4-chloro-2-methyl-6-[[α-methyl-(cyclopropylmethyl)amino]carbonyl]-phenyl]-3-(trifluoromethyl)-1-(3-chloro-2-pyridyl)-1H-pyrazol-5-carboxamide], the “median knockdown time (KT50 value)” value in data set [1] is 9 min and 8 min. The same measure, in the same setting: the result for `Cc1cc(Cl)cc(C(=O)NC(C)C2CC2)c1NC(=O)c1cc(Br)nn1-c1ncccc1Cl` (stereo not drawn) [compound No. 9, N-[4-chloro-2-methyl-6-[[α-methyl-(cyclopropylmethyl)amino]carbonyl]-phenyl]-3-bromo-1-(3-chloro-2-pyridyl)-1H-pyrazol-5-carboxamide] reads 7.5 min and 6 min.

Consider `CC(NC(=O)c1cc(Cl)cc(Br)c1NC(=O)c1cc(Br)nn1-c1ncccc1Cl)C1CC1` (stereo not drawn) [compound No. 16, N-[2-bromo-4-chloro-6-[[α-methyl-(cyclopropylmethyl)amino]carbonyl]-phenyl]-3-bromo-1-(3-chloro-2-pyridyl)-1H-pyrazol-5-carboxamide], for which, in data set [3], the mortality entry is “at least 90%”.
